Data on ten molecules can be found in patent US20200207734A1, “HETEROCYCLIC COMPOUND AND USE THEREOF” (Takeda Pharmaceutical Company Limited, priority 2017, published 2020).

For one assay, the system named is cynomolgus monkeys. Briefly: Evaluation of wake-promoting effects in cynomolgus monkeys (EEG/EMG/EOG). It counts as in vivo. As to conditions: Macaca fascicularis, sc, 4 h; 1 mg/kg, s.c., cynomolgus monkeys, administered at ZT12; read-out: Wakefulness time (% of vehicle treatment) (Mean, n = 1-2). How it is done: The wake-promoting effects were evaluated by measuring the electroencephalogram (EEG), electromyogram (EMG) and electrooculogram (EOG) in cynomolgus monkeys. Under isoflurane anesthesia (1-5%, Pfizer Japan Inc., Tokyo, Japan), male cynomolgus monkeys (3-5 years old, Hamri Co., Ltd., Ibaraki, Japan) were surgically implanted with radio-telemetry transmitters (TL10M3-D70-EEE, Data Sciences International Inc., MN, USA). EEG leads were stereotaxically positioned at the parietal area and secured to the cranium with stainless-steel screws in contact with the dura. […] Bilateral EMG leads were implanted into the back cervical muscles. After the surgery, each monkey was given penicillin (100,000 units/head, i.m., Meiji Seika Pharma Co., Ltd., Tokyo, Japan), buprenorphine (0.02 mg/kg, i.m., Otsuka Pharmaceutical Co., Ltd., Tokyo, Japan) and prednisolone (1 mg/kg, s.c., Kyoritsu Seiyaku Co., Ltd., Tokyo, Japan) daily for one week. After at least a 1-month recovery period in home cages, the monkeys were habituated to the recording chamber (an acrylic cage 60W×55D×75H (cm)) located in a soundproof, electrically shielded room. After we confirmed that monkeys slept sufficiently in the experimental room, cortical EEG, EMG and EOG signals were recorded using Dataquest ART software (Data Sciences International Inc., MN, USA). The signals were semi automatically scored in 20 sec epochs by a sleep scoring system (SleepSign, Kissei Comtec Co., Ltd., Nagano, Japan). This preliminary scoring was visually inspected and corrected if necessary. Test compound (10 mg/kg, Table 4-1) suspended in 0.5% methylcellulose aqueous solution, or vehicle (i.e., 0.5% methylcellulose aqueous solution) was administered orally (p.o.) to monkeys at zeitgeber time 12 (ZT12) in a volume of 5 mL/kg body weight in a cross-over design. EEG, EMG and EOG recordings were performed for 4 h after the compound administration/treatments. The time spent in wakefulness for 4 h after administration (% of vehicle treatment) was calculated by using SleepSign. Test compound (1 mg/kg, Table 4-2) dissolved in a mixed solution comprising 5% DMSO, 5% Cremophor EL, 20% PEG400 and 70% soluplus (1% (w/v)), or vehicle (i.e., a mixed solution comprising 5% DMSO, 5% Cremophor EL, 20% PEG400 and 70% soluplus (1% (w/v))) was administered subcutaneously (s.c.) to monkeys at ZT12 in a volume of 0.5 mL/kg body weight in a pre-post design. EEG, EMG and EOG recordings were performed for 4 h after the compound administration/treatments. The time spent in wakefulness for 4 h after administration (% of vehicle treatment) was calculated by using SleepSign.

Assay [1] has as its target T1, human orexin type 2 receptor (Homo sapiens, UniProt O43614).
T1 construct: human orexin type 2 receptor cDNA was inserted into pcDNA3.1(+) plasmid vector (Invitrogen); expressed in transfected cells
T1 sequence (O43614 1-444): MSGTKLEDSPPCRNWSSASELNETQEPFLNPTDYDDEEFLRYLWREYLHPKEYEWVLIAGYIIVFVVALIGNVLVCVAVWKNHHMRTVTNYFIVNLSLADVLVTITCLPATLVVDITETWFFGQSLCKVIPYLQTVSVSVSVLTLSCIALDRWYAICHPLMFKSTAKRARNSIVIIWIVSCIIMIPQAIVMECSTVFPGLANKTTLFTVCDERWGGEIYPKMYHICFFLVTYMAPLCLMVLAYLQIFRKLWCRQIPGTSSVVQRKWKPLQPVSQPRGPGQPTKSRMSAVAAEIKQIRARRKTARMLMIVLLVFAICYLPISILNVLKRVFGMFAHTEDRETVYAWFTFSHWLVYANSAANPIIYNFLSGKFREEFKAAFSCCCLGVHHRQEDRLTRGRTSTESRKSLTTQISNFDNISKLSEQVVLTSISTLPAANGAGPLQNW
Briefly: Measurement of orexin type 2 receptor agonist activity (calcium fluorescence, CHO cells expressing hOX2R). It is filed as cell-based. The settings on record: test compound 3 μM; CHO cells expressing human OX2 receptor; DMSO = 0%, orexin A (human) = 100%. In short, it runs like this:
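CHO-dhfr cells stably expressing hOX2R, loaded with Fluo-4 AM in HBSS/20 mM HEPES/0.1% BSA with probenecid, then given test compound. Calcium fluorescence was read for about 2 min 40 sec. Activity (%) was scaled between DMSO (0%) and 10 nM final human orexin A (100%).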

With `CCS(=O)(=O)N[C@H]1CCN(C(=O)N2CCC2)[C@H]1Cc1cccc(-c2ccccc2)c1` [Example 364, N-((2S,3S)-1-(azetidin-1-ylcarbonyl)-2-(biphenyl-3-ylmethyl)pyrrolidin-3-yl)ethanesulfonamide], the response vs control in vivo at 1 mg/kg in the assay on cynomolgus monkeys was found to be 375%. The “OX2R agonist activity (3 μM, %)” value in assay [1] is listed as 104%.

With `CCS(=O)(=O)N[C@H]1CCN(C(=O)N2CCC2)[C@H]1Cc1cccc(-c2cccc(F)c2)c1F` [Example 372, N-((2S,3S)-1-(azetidin-1-ylcarbonyl)-2-((2,3′-difluorobiphenyl-3-yl)methyl)pyrrolidin-3-yl)ethanesulfonamide], the response vs control in vivo at 1 mg/kg in the assay with cynomolgus monkeys worked out at 328%. The “OX2R agonist activity (3 μM, %)” value in assay [1] is 98%.

Regarding `CN(C)C(=O)N1CC[C@H](NS(=O)(=O)N(C)C)[C@@H]1Cc1cccc(-c2cccc(F)c2)c1F` [Example 377, (2S,3S)-2-((2,3′-difluorobiphenyl-3-yl)methyl)-3-((dimethylsulfamoyl)amino)-N,N-dimethylpyrrolidine-1-carboxamide], the response vs control in vivo at 1 mg/kg with cynomolgus monkeys came out at 343%. Moreover, the “OX2R agonist activity (3 μM, %)” value in assay [1] was 103%.

Consider `CCS(=O)(=O)N[C@H]1CCN(C(=O)N(C)OC)[C@H]1Cc1cccc(-c2ccccc2)c1` [Example 407, (2S,3S)-2-(biphenyl-3-ylmethyl)-3-((ethylsulfonyl)amino)-N-methoxy-N-methylpyrrolidine-1-carboxamide], for which the response vs control in vivo at 1 mg/kg in the assay on cynomolgus monkeys is 391%. In addition, the “OX2R agonist activity (3 μM, %)” value in assay [1] amounted to 107%.

As to `CCS(=O)(=O)N[C@H]1CCN(C(=O)N2CCC2)[C@H]1Cc1cccc(-c2ccccc2)c1F` [Example 456, N-{(2S,3S)-1-(azetidine-1-carbonyl)-2-[(2-fluoro[1,1′-biphenyl]-3-yl)methyl]pyrrolidin-3-yl}ethanesulfonamide], the response vs control in vivo at 1 mg/kg with cynomolgus monkeys was 446%. For the same molecule, the “OX2R agonist activity (3 μM, %)” value in assay [1] amounted to 104%.

As for `CCS(=O)(=O)N[C@H]1CCN(C(=O)N(C)OC)[C@H]1Cc1cccc(-c2cccc(F)c2)c1` [Example 474, (2S,3S)-3-[(ethanesulfonyl)amino]-2-[(3′-fluoro[1,1′-biphenyl]-3-yl)methyl]-N-methoxy-N-methylpyrro-lidine-1-carboxamide], the response vs control in vivo at 1 mg/kg with cynomolgus monkeys is 329%. For the same molecule, in assay [1], the “OX2R agonist activity (3 μM, %)” value is on record as 109%.

As to `CN(C)C(=O)N1CC[C@H](NS(=O)(=O)N(C)C)[C@@H]1Cc1cccc(-c2ccccc2)c1F` [Example 475, (2S,3S)-3-[(dimethylsulfamoyl)amino]-2-[(2-fluoro[1,1′-biphenyl]-3-yl)methyl]-N,N-dimethyl-pyrrolidine-1-carboxamide], in the assay with cynomolgus monkeys, the response vs control in vivo at 1 mg/kg amounted to 410%. Also, in assay [1], the “OX2R agonist activity (3 μM, %)” value is 104%.

Consider `CN(C)C(=O)N1CC[C@H](NS(=O)(=O)N(C)C)[C@@H]1Cc1cccc(-c2cc(F)cc(F)c2)c1F` [Example 476, (2S,3S)-3-[(dimethylsulfamoyl)amino]-N,N-dimethyl-2-[(2,3′,5′-trifluoro[1,1′-biphenyl]-3-yl)methyl]pyrrolidine-1-carboxamide], for which, in the assay with cynomolgus monkeys, the response vs control in vivo at 1 mg/kg was 392%. The “OX2R agonist activity (3 μM, %)” value in assay [1] turned out to be 103%.

In the case of `CCS(=O)(=O)N[C@H]1CCN(C(=O)N(C)OC)[C@H]1Cc1cccc(-c2cc(F)cc(F)c2)c1` [Example 477, (2S,3S)-2-[(3′,5′-difluoro[1,1′-biphenyl]-3-yl)methyl]-3-[(ethane-sulfonyl)amino]-N-methoxy-N-methylpyrrolidine-1-carboxamide], the response vs control in vivo at 1 mg/kg in the assay on cynomolgus monkeys stood at 383%. For the same molecule, the “OX2R agonist activity (3 μM, %)” value in assay [1] is listed as 106%.

As for `CS(=O)(=O)N[C@H]1CCN(C(=O)N2CCC2)[C@H]1Cc1cccc(-c2cccc(F)c2)c1F` [Example 485, N-((2S,3S)-1-(azetidin-1-ylcarbonyl)-2-((2,3′-difluorobiphenyl-3-yl)methyl)pyrrolidin-3-yl)methanesulfonamide], the response vs control in vivo at 1 mg/kg in the assay on cynomolgus monkeys was 449%. For the same molecule, in assay [1], the “OX2R agonist activity (3 μM, %)” value came out at 104%.
